# From the Kinase Knowledgebase extract (Sharma et al. 2016)
# Biological target: CDK2 (human) (UniProt P24941)
# Assay: Enzyme Assay
row,Structure (SMILES),IC50
1,COc1nc(C)c(-c2ccnc(Nc3ccc(F)cc3)n2)s1,120 nM
2,Cc1nc(N)sc1-c1ccnc(Nc2ccc(C(F)(F)F)cc2)n1,680 nM
3,COc1nc(C)c(-c2ccnc(Nc3ccc(N(C)C)cc3)n2)s1,750 nM
4,COc1nc(C)c(-c2ccnc(Nc3ccc(O)cc3)n2)s1,50 nM
5,Cc1nc(C)c(-c2ccnc(Nc3ccc(CCO)cc3)n2)s1,470 nM
6,COc1ccc(Nc2nccc(-c3sc(OC)nc3C)n2)cc1,250 nM
7,COc1ccc(Nc2nccc(-c3sc(C)nc3C)n2)cc1O,140 nM
8,COc1nc(C)c(-c2ccnc(Nc3cccc([N+](=O)[O-])c3)n2)s1,60 nM
9,COc1nc(C)c(-c2ccnc(Nc3ccc(Cl)cc3)n2)s1,110 nM
10,COc1nc(C)c(-c2ccnc(Nc3ccc(F)c([N+](=O)[O-])c3)n2)s1,120 nM

# Other lines, results leading:
row,IC50,Structure (SMILES)
1,1180 nM,COc1nc(C)c(-c2ccnc(Nc3ccc(Cl)c(C)c3)n2)s1
2,700 nM,COc1nc(C)c(-c2ccnc(Nc3ccc(C)c(I)c3)n2)s1
3,110 nM,COc1nc(C)c(-c2ccnc(Nc3ccc(C)c([N+](=O)[O-])c3)n2)s1
4,130 nM,COc1nc(C)c(-c2ccnc(Nc3ccc(F)c(C)c3)n2)s1
5,120 nM,COc1nc(C)c(-c2ccnc(Nc3cccc(O)c3)n2)s1
